From patent US20260250289A1, “BICYCLIC HETEROCYCLES AND THEIR USE AS WRN INHIBITORS” (Novartis AG, priority 2022, published 2026)
Read-outs that look alike come from different tables or passages of the source.

Key:
[1] = target: T1, WRN helicase (aa N517-P1238) (Homo sapiens, UniProt Q14191); experiment: WRN ATPase assay (DNA dependent ATP hydrolysis, ADP-Glo); type: biochemical; conditions: 3 hours pre-incubation, 300 micromolar ATP, FLAP26 DNA; geometric mean of at least 2
T1 construct: The core helicase motif of the WRN protein (aa N517-P1238) was produced for this assay; His (N); ZZ (N); 3C protease cleavage site (N); made in house; host or cells: Sf21 insect cells (baculovirus; virus and BIICs made in SF9)
T1 sequence (Q14191 517-1238): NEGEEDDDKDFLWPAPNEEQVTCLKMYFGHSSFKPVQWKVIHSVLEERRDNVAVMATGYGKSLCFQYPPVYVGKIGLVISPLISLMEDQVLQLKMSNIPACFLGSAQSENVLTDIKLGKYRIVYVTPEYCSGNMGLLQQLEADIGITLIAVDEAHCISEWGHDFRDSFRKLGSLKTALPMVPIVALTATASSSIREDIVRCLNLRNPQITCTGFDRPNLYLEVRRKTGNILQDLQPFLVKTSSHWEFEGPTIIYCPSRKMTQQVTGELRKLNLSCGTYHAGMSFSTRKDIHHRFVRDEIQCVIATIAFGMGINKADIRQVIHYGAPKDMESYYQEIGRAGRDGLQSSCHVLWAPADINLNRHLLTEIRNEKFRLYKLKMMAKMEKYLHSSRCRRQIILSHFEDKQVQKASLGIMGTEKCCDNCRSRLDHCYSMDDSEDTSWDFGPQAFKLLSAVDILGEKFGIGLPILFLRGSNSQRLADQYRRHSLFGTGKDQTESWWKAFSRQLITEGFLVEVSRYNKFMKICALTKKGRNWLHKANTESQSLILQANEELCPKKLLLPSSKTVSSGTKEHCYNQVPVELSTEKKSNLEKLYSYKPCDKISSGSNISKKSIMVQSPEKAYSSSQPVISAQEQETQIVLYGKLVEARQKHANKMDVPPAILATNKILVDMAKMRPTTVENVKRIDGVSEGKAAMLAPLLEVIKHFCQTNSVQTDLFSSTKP
Procedure, shortened: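 DNA-dependent ATP hydrolysis detected as ADP by ADP-Glo luminescence, using 300 μM ATP, 0.2 nM FLAP26 substrate and 10 nM WRN aa N517-P1238 (Tris pH 7.5 buffer, 2 mM MgCl2, 50 mM NaCl). IC50s fitted from normalized duplicate half-log dilutions; reported as geometric means of at least 2 replicates.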

SW48 cells = experiment: Proliferation assay SW48 (CellTiterGlo); type: cell-based; conditions: SW48 colon carcinoma cells, 96 hours, CellTiterGlo, geometric mean of at least 2, read-out: Proliferation Assay SW48 GI50
Procedure, shortened: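 Read-out is CellTiterGlo luminescence after 96 hours of compound exposure, with % growth calculated against day-0 and vehicle-treated ATP levels. SW48 seeded at 2,000 cells/well, dosed next day with eight 3-fold serial dilutions, 0.1% DMSO. GI50 reported as geometric mean, at least 2 replicates.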

DLD1-WRN-KO cells = experiment: Proliferation assay DLD1-WRN-KO (CellTiterGlo, off-target effects); type: cell-based; conditions: 96 hours, geometric mean of at least 2
Procedure, shortened: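 DLD1 cells with CRISPR knockout of WRN were exposed overnight-seeded to eight 3-fold compound dilutions (0.1% DMSO) for 96 h at 37 °C. Viability was read as ATP by CellTiterGlo luminescence against a day-0 plate, giving GI50 and residual viability at top concentration.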

Row | SMILES | IC50 [1] [nM] | GI50 (SW48 cells; Homo sapiens, SW48, 96 h) [µM] | GI50 (DLD1-WRN-KO cells) [µM] | GI50 (SW48 cells) [µM]
1 | CCc1c(N2CCN(C(=O)c3c(O)ccc4nccn34)CC2)c(=O)n2nc(C3=CCOCC3)nc2n1CC(=O)Nc1ccc(C(F)(F)F)cc1C [Example 44, 2-(2-(3,6-dihydro-2H-pyran-4-yl)-5-ethyl-6-(4-(6-hydroxyimidazo[1,2-a]pyridine-5-carbonyl)piperazin-1-yl)-7-oxo-[1,2,4]triazolo[1,5-a]pyrimidin-4(7H)-yl)-N-(2-methyl-4-(trifluoromethyl)phenyl)acetamide] | 80 | 0.9 | > 10 | –
2 | CC(=O)N1CCN(c2c(C)n(CC(=O)Nc3ccc(Cl)cc3)c3nc(N4CCN(C(=O)OC(C)(C)C)CC4)nn3c2=O)CC1 [Example 158, tert-butyl 4-(6-(4-acetylpiperazin-1-yl)-4-(2-((4-chlorophenyl)amino)-2-oxoethyl)-5-methyl-7-oxo-4,7-dihydro-[1,2,4]triazolo[1,5-a]pyrimidin-2-yl)piperazine-1-carboxylate] | 300 | 3 | 1 | –
3 | CC(=O)N1CCN(c2c(C)n(CC(=O)Nc3cc(C(F)(F)F)c(Cl)cc3C)c3nc(C4=CCOCC4)nn3c2=O)CC1 [Example 80, 2-(6-(4-acetylpiperazin-1-yl)-2-(3,6-dihydro-2H-pyran-4-yl)-5-methyl-7-oxo-[1,2,4]triazolo[1,5-a]pyrimidin-4(7H)-yl)-N-(4-chloro-2-methyl-5-(trifluoromethyl)phenyl)acetamide] | 300 | 0.8 | > 10 | –
4 | CCc1c(N2CCN(C(C)=O)CC2)c(=O)n2nc(C3=CCOCC3)nc2n1CC(=O)Nc1ccc(C(F)(F)F)cc1F [Example 88, 2-(6-(4-acetylpiperazin-1-yl)-2-(3,6-dihydro-2H-pyran-4-yl)-5-ethyl-7-oxo-[1,2,4]triazolo[1,5-a]pyrimidin-4(7H)-yl)-N-(2-fluoro-4-(trifluoromethyl)phenyl)acetamide] | 500 | 3 | > 10 | –
5 | Cc1c(N2CCN(C(=O)c3ncccc3N)CC2)c(=O)n2nc(N3CCOCC3)nc2n1CC(=O)Nc1ccc(C(F)(F)F)cc1 [Example 160, 2-(6-(4-(3-aminopicolinoyl)piperazin-1-yl)-5-methyl-2-morpholino-7-oxo-[1,2,4]triazolo[1,5-a]pyrimidin-4(7H)-yl)-N-(4-(trifluoromethyl)phenyl)acetamide] | 600 | 6 | > 10 | –
6 | CCc1c(N2CCN(C(=O)C3CCOC3)CC2)c(=O)n2nc(C3=CCCCO3)nc2n1CC(=O)Nc1ccc(C(F)(F)F)cc1 (stereo not drawn) [Example 56, 2-(2-(3,4-dihydro-2H-pyran-6-yl)-5-ethyl-7-oxo-6-(4-(tetrahydrofuran-3-carbonyl)piperazin-1-yl)-[1,2,4]triazolo[1,5-a]pyrimidin-4(7H)-yl)-N-(4-(trifluoromethyl)phenyl)acetamide] | 100 | – | > 10 | 1
7 | CC(=O)N(C)Cc1ccc(-c2nc3n(CC(=O)Nc4ccc(C(F)(F)F)cc4)c(C)c(N4CCN(C(C)=O)CC4)c(=O)n3n2)cc1 [Example 70, 2-(6-(4-acetylpiperazin-1-yl)-5-methyl-2-(4-((N-methylacetamido)methyl)phenyl)-7-oxo-[1,2,4]triazolo[1,5-a]pyrimidin-4(7H)-yl)-N-(4-(trifluoromethyl)phenyl)acetamide] | 70 | 0.9 | > 10 | –
8 | CC(=O)N1CCN(c2c(C)n(CC(=O)Nc3ccc(C(F)(F)F)cc3)c3nc(-c4ccccn4)nn3c2=O)CC1 [Example 115, 2-(6-(4-acetylpiperazin-1-yl)-5-methyl-7-oxo-2-(pyridin-2-yl)-[1,2,4]triazolo[1,5-a]pyrimidin-4(7H)-yl)-N-(4-(trifluoromethyl)phenyl)acetamide] | 500 | 2 | 5 | –
9 | CC(=O)N1CCN(c2c(C)n(CC(=O)Nc3ccc(C(F)(F)F)cc3)c3nc(N4CCCC(F)C4)nn3c2=O)CC1 (stereo not drawn) [Example 1, 2-(6-(4-acetylpiperazin-1-yl)-2-(3-fluoropiperidin-1-yl)-5-methyl-7-oxo-[1,2,4]triazolo[1,5-a]pyrimidin-4(7H)-yl)-N-(4-(trifluoromethyl)phenyl)acetamide] | 1000 | 5 | > 10 | –
10 | CC(=O)N1CCN(c2c(C)n(CC(=O)Nc3ccc(C(F)(F)F)cc3C)c3nc(C4=CCOCC4)nn3c2=O)CC1 [Example 64, 2-(6-(4-acetylpiperazin-1-yl)-2-(3,6-dihydro-2H-pyran-4-yl)-5-methyl-7-oxo-[1,2,4]triazolo[1,5-a]pyrimidin-4(7H)-yl)-N-(2-methyl-4-(trifluoromethyl)phenyl)acetamide] | 900 | 4 | > 10 | –
11 | Cc1c(N2CCN(C(=O)c3cc(F)ccc3N)CC2)c(=O)n2nc(C3=CCOCC3)nc2n1CC(=O)Nc1ccc(C(F)(F)F)cc1 [Example 157, 2-(6-(4-(2-amino-5-fluorobenzoyl)piperazin-1-yl)-2-(3,6-dihydro-2H-pyran-4-yl)-5-methyl-7-oxo-[1,2,4]triazolo[1,5-a]pyrimidin-4(7H)-yl)-N-(4-(trifluoromethyl)phenyl)acetamide] | 200 | 3 | > 10 | –
12 | CC(=O)N1CCN(c2c(C)n(CC(=O)Nc3cc(F)c(C(F)(F)F)c(F)c3)c3nc(C4=CCOCC4)nn3c2=O)CC1 [Example 103, 2-(6-(4-acetylpiperazin-1-yl)-2-(3,6-dihydro-2H-pyran-4-yl)-5-methyl-7-oxo-[1,2,4]triazolo[1,5-a]pyrimidin-4(7H)-yl)-N-(3,5-difluoro-4-(trifluoromethyl)phenyl)acetamide] | 4000 | 4 | > 10 | –
13 | CC(=O)N1CCN(c2c(C)n(CC(=O)Nc3ccc(C(F)(F)F)cc3)c3nc(N4CCC5CC54)nn3c2=O)CC1 (stereo not drawn) [Example 6, 2-(6-(4-acetylpiperazin-1-yl)-2-(2-azabicyclo[3.1.0]hexan-2-yl)-5-methyl-7-oxo-[1,2,4]triazolo[1,5-a]pyrimidin-4(7H)-yl)-N-(4-(trifluoromethyl)phenyl)acetamide] | 2000 | 7 | > 10 | –
14 | CC(=O)N1CC=C(c2nc3n(CC(=O)Nc4ccc(S(F)(F)(F)(F)F)cc4)c(C)c(N4CCN(C(C)=O)CC4)c(=O)n3n2)CC1 [Example 71, 2-(2-(1-acetyl-1,2,3,6-tetrahydropyridin-4-yl)-6-(4-acetylpiperazin-1-yl)-5-methyl-7-oxo-[1,2,4]triazolo[1,5-a]pyrimidin-4(7H)-yl)-N-(4-(pentafluoro-l6-sulfaneyl)phenyl)acetamide] | 90 | 5 | > 10 | –
15 | CC(=O)N1CCN(c2c(C)n(CC(=O)Nc3ccc(Cl)c4c3CCC4)c3nc(C4=CCOCC4)nn3c2=O)CC1 [Example 129, 2-(6-(4-acetylpiperazin-1-yl)-2-(3,6-dihydro-2H-pyran-4-yl)-5-methyl-7-oxo-[1,2,4]triazolo[1,5-a]pyrimidin-4(7H)-yl)-N-(7-chloro-2,3-dihydro-1H-inden-4-yl)acetamide] | 800 | 5 | > 10 | –
16 | CC(=O)N1CCC(c2c(C)n(CC(=O)Nc3ccc(C(F)(F)F)cc3)c3nc(C4=CCOCC4)nn3c2=O)CC1 [Example 141, 2-(6-(1-acetylpiperidin-4-yl)-2-(3,6-dihydro-2H-pyran-4-yl)-5-methyl-7-oxo-[1,2,4]triazolo[1,5-a]pyrimidin-4(7H)-yl)-N-(4-(trifluoromethyl)phenyl)acetamide] | 400 | 8 | > 10 | –
17 | COC(=O)N1CCN(c2nc3n(CC(=O)Nc4ccc(S(F)(F)(F)(F)F)cc4)c(C)c(N4CCN(C(C)=O)CC4)c(=O)n3n2)CC1 [Example 81, methyl 4-(6-(4-acetylpiperazin-1-yl)-5-methyl-7-oxo-4-(2-oxo-2-((4-(pentafluoro-l6-sulfaneyl)phenyl)amino)ethyl)-4,7-dihydro-[1,2,4]triazolo[1,5-a]pyrimidin-2-yl)piperazine-1-carboxylate] | 300 | 4 | > 10 | –
18 | Cc1c(N2CCN(C(=O)c3cnccc3O)CC2)c(=O)n2nc(N3CCOCC3)nc2n1CC(=O)Nc1ccc(C(F)(F)F)cc1 [Example 152, 2-(5-methyl-2-morpholino-7-oxo-6-(4-(4-oxo-1,4-dihydropyridine-3-carbonyl)piperazin-1-yl)-[1,2,4]triazolo[1,5-a]pyrimidin-4(7H)-yl)-N-(4-(trifluoromethyl)phenyl)acetamide] | 500 | > 10 | > 10 | –
19 | CC(=O)N1CCN(c2c(C)n(CC(=O)Nc3ccc(C(F)(F)F)cc3)c3nc(-c4ccccc4)nn3c2=O)CC1 [Example 130, 2-(6-(4-acetylpiperazin-1-yl)-5-methyl-7-oxo-2-phenyl-[1,2,4]triazolo[1,5-a]pyrimidin-4(7H)-yl)-N-(4-(trifluoromethyl)phenyl)acetamide] | 900 | 2 | 7 | –
